In patent US20130122051A1, “Methods of preparing progesterone pharmaceutical compositions” (PHARMACEUTICS INTERNATIONAL, INC., priority 2011, published 2013):

Experiment: particle size measured using a MALVERN MASTERSIZER particle size analyzer
Type: physicochemical
Settings: starting progesterone particles before milling
Description: Samples of each of the first, second, and third pass wet-milled progesterone compositions prepared under the various milling conditions are collected and the particle size (μm) is measured using a MALVERN MASTERSIZER particle size analyzer (Malvern Instruments, Westborough Mass.). Saturated, filtered, progesterone in sunflower oil is used as the diluent. “Initial” refers to unmilled progesterone suspension. “% Beads” refers to the volume of milling chamber filled with milling media (beads). “Input” refers to the pump setting. “Output” refers to the product (gm/min) received from the mill.

D90: 220 μm
Structure (SMILES): CC(=O)[C@H]1CC[C@H]2[C@@H]3CCC4=CC(=O)CC[C@]4(C)[C@H]3CC[C@]12C [unmicronized progesterone, pregn-4-ene-3,20-dione]
